# Experiments:
# [1] = Stability testing (absence of water) of the composition produced in Example 3; conditions: for relative amount of component at end of reaction (start of the stability trial): composition of Example 3 (no water added; H2O content 0.12 w/w), b61 reads the values as % of the composition
# [2] = Stability testing (initial 5% w/w water) of the composition produced in Example 4; conditions: for relative amount of component at end of reaction (start of the stability trial): composition of Example 4 (initial 5% w/w water; H2O content 4.76 w/w), b61 reads the values as % of the composition
# [3] = composition of Example 3 (absence of water), 25° C., 13 days
# [4] = composition of Example 3 (absence of water), 40° C., 13 days
# [5] = composition of Example 4 (initial 5% w/w water), 25° C., 13 days
# [6] = composition of Example 4 (initial 5% w/w water), 40° C., 13 days
Structure (SMILES),"relative amount of component, stability at 25° C. after 13 days [1, 3]","relative amount of component, stability at 40° C. after 13 days [1, 4]",relative amount of component at end of reaction (start of the stability trial) ([1]; day 15 of reaction at 60° C.),"relative amount of component, stability at 25° C. after 13 days [2, 5]","relative amount of component, stability at 40° C. after 13 days [2, 6]",relative amount of component at end of reaction (start of the stability trial) ([2]; day 16 of reaction at 50° C.),"BME % (w/w), stability at 25° C. after 13 days [1, 3]","BME % (w/w), stability at 40° C. after 13 days [1, 4]","BME % (w/w) at end of reaction (start of the stability trial) ([1]; composition of Example 3 (absence of water), day 15 of reaction at 60° C.)","BME % (w/w), stability at 25° C. after 13 days [2, 5]","BME % (w/w), stability at 40° C. after 13 days [2, 6]","BME % (w/w) at end of reaction (start of the stability trial) ([2]; composition of Example 4 (initial 5% w/w water), day 16 of reaction at 50° C.)"
"O=C(O)c1ccccc1 [BA, benzoic acid]",27.35,28.75,26.05,9.17,9.68,8.99,,,,,,
"CN1[C@H]2CC[C@@H]1[C@@H](C(=O)O)[C@@H](OC(=O)c1ccccc1)C2 [BEc, benzoylecgonine]",3.99,4.28,4.097,64.02,66.31,63.8,,,,,,
"COC(=O)[C@H]1[C@@H](OC(=O)c2ccccc2)C[C@@H]2CC[C@H]1N2C [BME, 3-benzoyloxy-2-carbomethyoxy-8-methyl-8-azabicyclo[3.2.1]octane]",1.19,0.90,1.76,0.84,0.46,0.95,0.08 % (w/w),0.06 % (w/w),0.13 % (w/w),0.07 % (w/w),0.04 % (w/w),0.08 % (w/w)
COC(=O)C1=CC[C@@H]2CC[C@H]1N2C [Methyl Ecd],1.33,1.26,1.42,0.86,0.80,1.00,,,,,,
